Data set [1] concerns Oocyte. Description: Activation of rat BKca channel extracted from Xenopus laevis Oocytes assessed as left shift in G-V curve at 5 uM by patch-clamp electrophysiology recordings. As to conditions: filed as opener. The class given is cell-based.
Data set [2] in a line: Metabolic stability in rat liver microsomes assessed as parent compound remaining at 1 uM preincubated for 5 mins followed by NADPH addition and measured after 30 mins by LC-MS/MS analysis. The class given is ADME, Microsome. As to conditions: read-out: Stability.
In data set [3] the test system is Calcium-activated potassium channel subunit alpha-1 (Homo sapiens), Q12791 [UNDEFINED MUTATION]. Description: Activation of hyperactive human BKca channel G803D/N806K mutant transfected in human AD-293 cells assessed as fold change in maximum relative fluorescence value at 5 uM preincubated for 15 mins followed by Tl+ stimulus buffer addition and measured after 80 sec by Flexstation3 multimode microplate reader analysis. The class given is cell-based. The note with it: filed as opener, time 980.0 sec.

The test system is the same in data set [4]. The data set is described as follows: Activation of hyperactive human BKca channel G803D/N806K mutant transfected in human AD-293 cells assessed as maximum relative fluorescence value at 5 uM preincubated for 15 mins followed by Tl+ stimulus buffer addition and measured after 80 sec by Flexstation3 multimode microplate reader analysis relative to control. The class given is cell-based. As to conditions: filed as opener, time 980.0 sec.

Data set [5] shares this test system. Description: Activation of hyperactive human BKca channel G803D/N806K mutant transfected in human AD-293 cells assessed as maximum relative fluorescence value at 1 uM preincubated for 15 mins followed by Tl+ stimulus buffer addition and measured after 80 sec by Flexstation3 multimode microplate reader analysis relative to control. The note with it: time 980.0 sec. The class given is cell-based.

Data set [6] deals with Calcium-activated potassium channel subunit alpha-1 (Homo sapiens, UniProt Q12791, G803D/N806K). The data set is described as follows: Activation of hyperactive human BKca channel G803D/N806K mutant transfected in human AD-293 cells incubated for 15 mins by Flexstation3 multimode microplate reader analysis. The format is cell-based.
For data set [7], the system named is Calcium-activated potassium channel subunit alpha-1 (Homo sapiens), Q12791 [UNDEFINED MUTATION]. The data set is described as follows: Activation of hyperactive human BKca channel G803D/N806K mutant transfected in human AD-293 cells assessed as fold change in maximum relative fluorescence value at 5 uM preincubated for 15 mins followed by Tl+ stimulus buffer addition and measured after 80 sec by Flexstation3 multimode microplate reader analysis relative to 4-chloro-7-(trifluoromethyl)-10H-benzofuro[3,2-b]indole-1-carboxylic acid. The format is cell-based. The note with it: filed as opener, time 980.0 sec.

Data set [8] is described as follows: Metabolic stability in human liver microsomes assessed as parent compound remaining at 1 uM preincubated for 5 mins followed by NADPH addition and measured after 30 mins by LC-MS/MS analysis. As to conditions: read-out: Stability. The class given is ADME, Microsome. Background: Microsomes from liver hold many membrane-bound enzymes, among them those of drug oxidation.

Data set [9] in a line: Metabolic stability in human liver microsomes assessed as parent compound remaining at 1 uM preincubated for 15 mins followed by UDPGA addition and measured after 60 mins by LC-MS/MS analysis. The note with it: time 75 min, read-out: Stability. The format is ADME, Microsome.
Data set [10] is described as follows: Activation of rat BKca channel extracted from Xenopus laevis Oocytes by patch-clamp electrophysiology recordings. The class given is cell-based. As to conditions: Oocyte. On the technique in general: Patch clamp records ionic current or voltage across a cell membrane.
Data set [11] is described as follows: Drug metabolism in male Sprague-Dawley rat assessed as glucuronide conjugated metabolite formation at 10 mg/kg, po measured after approximately 4.2 hrs by LC-MS/MS analysis. The class given is ADME, organism-based. As to conditions: in vivo.
The nature of data set [12]: Permeability of compound at pH 7.4 measured after 4 hrs by GIT-PAMPA assay. The class given is ADME. As to conditions: read-out: permeability. In general terms: PAMPA measures passive passage across an artificial lipid membrane.
Data set [13] in a line: Metabolic stability in rat liver microsomes assessed as parent compound remaining at 1 uM preincubated for 15 mins followed by UDPGA addition and measured after 60 mins by LC-MS/MS analysis. The class given is ADME, Microsome. The note with it: time 75 min, read-out: Stability.
Data set [14] relates to Oocyte. Description: Activation of wildtype rat BKca channel extracted from Xenopus laevis Oocytes assessed as negative shift in V1/2 at 5 uM at -100 mV holding potential by patch-clamp electrophysiology recordings. The note with it: filed as opener. The format is cell-based.
Data set [15] relates to Oocyte. The data set is described as follows: Activation of […] rat BKca channel W22A mutant extracted from Xenopus laevis Oocytes assessed as negative shift in V1/2 at 5 uM at -100 mV holding potential by patch-clamp electrophysiology recordings. The format is cell-based. As to conditions: filed as opener.
In data set [16] the test system is Oocyte. Description: Activation of […] rat BKca channel F266A mutant extracted from Xenopus laevis Oocytes assessed as negative shift in V1/2 at 5 uM at -100 mV holding potential by patch-clamp electrophysiology recordings. The class given is cell-based. The note with it: filed as opener.
Data set [17] relates to Oocyte. The data set is described as follows: Activation of […] rat BKca channel S259A mutant extracted from Xenopus laevis Oocytes assessed as negative shift in V1/2 at 5 uM at -100 mV holding potential by patch-clamp electrophysiology recordings. The class given is cell-based. As to conditions: filed as opener.
Data set [18] is described as follows: Tmax in male Sprague-Dawley rat at 10 mg/kg, po by LC-MS/MS analysis. The format is ADME, organism-based. As to conditions: in vivo.
Data set [19] can be described thus: AUClast in male Sprague-Dawley rat at 10 mg/kg, po by LC-MS/MS analysis. The class given is ADME, organism-based. The note with it: in vivo.
In data set [20] the test system is Rattus norvegicus. Description: Reversal of urinary incontinence in male spontaneous hypertensive rat model assessed as decrease in urine volume at 100 mg/kg, po measured after 3 hrs relative to control. Further details: scale not given: the % may be the effect or the level left. The format is functional.
The nature of data set [21]: Cmax in male Sprague-Dawley rat at 10 mg/kg, po by LC-MS/MS analysis. The format is ADME, organism-based. As to conditions: in vivo.
Data set [22] can be described thus: Toxicity in male spontaneous hypertensive rat model at 100 mg/kg, po. The format is organism-based. As to conditions: in vivo.
Data set [23] can be described thus: Half-life in male Sprague-Dawley rat at 10 mg/kg, po by LC-MS/MS analysis. As to conditions: in vivo. The format is ADME, organism-based.
Data set [24] relates to Rattus norvegicus. Description: Reversal of urinary incontinence in male spontaneous hypertensive rat model assessed as decrease in urine frequency at 100 mg/kg, po measured after 3 hrs relative to control. The format is functional. Further details: scale not given: the % may be the effect or the level left.
Data set [25] concerns Rattus norvegicus. Description: Reversal of urinary incontinence in male spontaneous hypertensive rat model assessed as decrease in urine frequency at 20 to 40 mg/kg, po measured after 3 hrs. The format is functional, organism-based. As to conditions: dose 20-40 mg/kg.
Data set [26] in a line: Clearance in male Sprague-Dawley rat at 10 mg/kg, iv by LC-MS/MS analysis. The class given is ADME, organism-based. As to conditions: in vivo.
Data set [27] can be described thus: Volume of distribution at steady state in male Sprague-Dawley rat at 10 mg/kg, iv by LC-MS/MS analysis. The format is ADME, organism-based. The note with it: in vivo, read-out: Vdss.
The nature of data set [28]: Half-life in male Sprague-Dawley rat at 10 mg/kg, iv by LC-MS/MS analysis. The note with it: in vivo. The format is ADME, organism-based.
Data set [29] in a line: Oral bioavailability in male Sprague-Dawley rat at 10 mg/kg by LC-MS/MS analysis. The class given is ADME, organism-based. The note with it: in vivo.
A short description of data set [30]: AUClast in male Sprague-Dawley rat at 10 mg/kg, iv by LC-MS/MS analysis. The class given is ADME, organism-based. The note with it: in vivo.
Data set [31] has as its system Rattus norvegicus. The data set is described as follows: Reversal of urinary incontinence in male spontaneous hypertensive rat model assessed as decrease in urine frequency at 10 to 50 mg/kg, po measured after 3 hrs. As to conditions: dose 10-50 mg/kg. The class given is functional, organism-based.
The subject of data set [32] is Calcium-activated potassium channel subunit alpha-1 (Homo sapiens), Q12791 [UNDEFINED MUTATION]. Description: Activation of hyperactive human BKca channel G803D/N806K mutant transfected in human AD-293 cells at >2 uM preincubated for 15 mins followed by Tl+ stimulus buffer addition and measured after 80 sec in presence of paxilline by Flexstation3 multimode microplate reader analysis. The class given is cell-based. As to conditions: filed as opener, time 980.0 sec.

Data set [33] concerns Rattus norvegicus. Description: Reversal of urinary incontinence in male spontaneous hypertensive rat model assessed as decrease in total urine volume at 1 mg/kg, ip measured after 3 hrs relative to control. Further details: scale not given: the % may be the effect or the level left. The format is functional.
The test system of data set [34] is Rattus norvegicus. Description: Reversal of urinary incontinence in male spontaneous hypertensive rat model assessed as decrease in urine frequency at 0.1 mg/kg, ip measured after 3 hrs relative to control. The class given is functional. Also on record: scale not given: the % may be the effect or the level left.
Data set [35] has as its system Rattus norvegicus. Description: Reversal of urinary incontinence in male spontaneous hypertensive rat model assessed as decrease in urine frequency at 0.3 mg/kg, ip measured after 3 hrs relative to control. The format is functional. Also on record: scale not given: the % may be the effect or the level left.

pEC50: −log10 of the molar value. Activity calls are given as the source filed them. The calls are words filed in the database; no cut-off is given here.

Chain of Calcium-activated potassium channel subunit alpha-1 (Homo sapiens), Q12791 [UNDEFINED MUTATION] (Q12791 whole entry, looked up, stated change not applied): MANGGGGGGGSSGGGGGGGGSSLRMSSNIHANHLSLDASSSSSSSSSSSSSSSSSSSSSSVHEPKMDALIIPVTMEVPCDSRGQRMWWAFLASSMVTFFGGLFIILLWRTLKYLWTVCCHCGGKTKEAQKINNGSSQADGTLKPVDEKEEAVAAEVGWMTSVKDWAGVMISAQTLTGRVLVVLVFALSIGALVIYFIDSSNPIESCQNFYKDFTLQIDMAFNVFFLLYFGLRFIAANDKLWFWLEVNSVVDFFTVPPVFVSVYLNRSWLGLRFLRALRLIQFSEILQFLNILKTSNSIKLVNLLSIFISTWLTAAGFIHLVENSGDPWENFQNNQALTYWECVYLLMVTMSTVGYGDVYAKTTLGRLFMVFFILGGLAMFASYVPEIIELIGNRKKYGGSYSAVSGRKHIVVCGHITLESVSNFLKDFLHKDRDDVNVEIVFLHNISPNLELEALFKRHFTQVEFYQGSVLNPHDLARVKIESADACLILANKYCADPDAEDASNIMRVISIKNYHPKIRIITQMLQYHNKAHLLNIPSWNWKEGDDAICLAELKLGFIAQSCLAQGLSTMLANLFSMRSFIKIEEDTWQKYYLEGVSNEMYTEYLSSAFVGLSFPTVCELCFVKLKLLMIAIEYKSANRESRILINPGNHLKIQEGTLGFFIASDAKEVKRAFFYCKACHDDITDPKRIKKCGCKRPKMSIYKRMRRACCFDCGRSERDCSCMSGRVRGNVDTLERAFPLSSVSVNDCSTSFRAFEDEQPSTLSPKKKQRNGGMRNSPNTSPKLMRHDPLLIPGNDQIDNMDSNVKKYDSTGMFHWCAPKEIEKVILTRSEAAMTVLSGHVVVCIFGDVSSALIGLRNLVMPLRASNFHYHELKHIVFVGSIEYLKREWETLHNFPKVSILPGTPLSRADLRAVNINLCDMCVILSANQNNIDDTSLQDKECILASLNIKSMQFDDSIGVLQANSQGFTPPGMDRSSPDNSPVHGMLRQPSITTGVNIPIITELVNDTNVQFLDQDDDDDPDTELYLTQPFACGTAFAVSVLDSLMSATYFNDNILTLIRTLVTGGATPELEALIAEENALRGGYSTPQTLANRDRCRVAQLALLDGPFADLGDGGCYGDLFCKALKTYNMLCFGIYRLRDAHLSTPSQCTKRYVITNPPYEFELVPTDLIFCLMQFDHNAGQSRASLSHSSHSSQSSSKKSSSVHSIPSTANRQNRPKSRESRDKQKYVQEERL
Chain of Calcium-activated potassium channel subunit alpha-1 (Q12791 whole entry, looked up, stated change not applied): as above

By pEC50 is commonly meant the EC50 on a negative log10 scale, so that one unit is a factor of ten. As for `Oc1ccc(Oc2c(F)c(F)c(Cl)c(F)c2F)c(O)c1`, the result in data set [1] was Active. For the same compound, the remaining at 0.5 h, 1 µM stood at 35.9% in [2] and 83.6% in data set [8]. Moreover, the fold change (FC) in data set [3] stood at 9.7; in data set [7], 2.5. For the same compound, the Activity is 100% in data set [4] and 41.6% in [5] (filed as opener). In addition, in [6], the negative logarithm of the EC50 (pEC50) is 5.80.
For `Nc1ccc(Oc2c(F)c(F)c(C(F)(F)F)c(F)c2F)c(O)c1` [listing 1 of 2 here], the remaining at 1 h, 1 µM stood at 4.8% in [9] and 5.8% in data set [13]. Besides, the figures for the pEC50 in data set [10] and in data set [6] were 6.55 and 6.92, respectively. Besides, in [11], the Drug metabolism result is reported as “metabolite_detected”. Further, the remaining at 0.5 h, 1 µM turned out to be 34.6% in [2] and 97% in [8]. Besides, the Papp at 4 h in data set [12] turned out to be 41.1 ×10⁻⁶ cm/s.
`Oc1cc(NCCCCCN2CCOCC2)ccc1Oc1c(F)c(F)c(C(F)(F)F)c(F)c1F`: the Activity in data set [14] was 86.2 mV; in data set [4], 81.3%; in [15], 24 mV; in data set [16] it was 37.9 mV; in data set [17] it was 23.5 mV.
As a reminder, the Tmax is the time from dosing to the highest level. In general, AUC(0-t) refers to exposure summed from dosing to a finite time, without extrapolation to infinity. One may read the Cmax as the peak of the concentration-time curve. The term half-life denotes the time in which the quantity being followed falls by half. Consider `Cl.Cl.Oc1cc(NCCCCN2CCOCC2)ccc1Oc1c(F)c(F)c(C(F)(F)F)c(F)c1F`, for which the time to peak (Tmax) in data set [18] came out at 0.7 h. The compound further yielded an exposure AUC(0-t) in [19] of 223 ng·h/mL. Further, the Activity in data set [20] is 49.2%; in [22], “Non-toxic”; in data set [24], 43.2%. For the same compound, the highest level in [21] (Cmax) was 72.1 ng/mL. The half-life in [23] is 3.7 h.
As for `COc1cc(N)ccc1Oc1c(F)c(F)c(C(F)(F)F)c(F)c1F`, the values for the Activity in data set [4] and in [5] were 107% and 31.8%, respectively. Besides, the result in [25] was inactive.
As usually defined, the clearance is a measure of how efficiently the substance is removed, as volume per time. By bioavailability is commonly meant dose-corrected exposure relative to a reference, in per cent. In data set [26], `COc1cc(N)ccc1Oc1c(F)c(F)c(C(F)(F)F)c(F)c1F.Cl` showed a clearance of 25 mL/min/kg. Besides, the Vd in [27] turned out to be 3.5 L/kg. For the same compound, the Tmax in data set [18] stood at 1.2 h. In addition, the AUC(0-t) in [19] worked out at 668 ng·h/mL; in data set [30] it was 6260 ng·h/mL. Also, the half-life is 2.1 h in data set [28] and 6.4 h in data set [23]. In addition, the Cmax in data set [21] was 182 ng/mL. For the same compound, in [29], the bioavailability was determined as 9.9%.
Turning to `Nc1ccc(Oc2c(F)c(F)c(C(F)(F)F)c(F)c2F)c(O)c1` [listing 2 of 2 here], the outcome in data set [31] was inactive. In addition, the Activity in [4] and in data set [5] (filed as opener) was 100% throughout. The result in [32] was Active.
`Cl.Nc1ccc(Oc2c(F)c(F)c(C(F)(F)F)c(F)c2F)c(O)c1`: the Activity in [33] is 48.5%; in [34] it was 43%; in data set [35], 65%. In [26], this compound had a clearance of 115 mL/min/kg. For the same compound, the Vd in data set [27] is 13.2 L/kg. The Tmax in data set [18] came out at 4.2 h. The AUC(0-t) was 344 ng·h/mL in data set [19] and 1450 ng·h/mL in [30]. The half-life was 4.5 h in data set [28] and 3.9 h in data set [23]. This compound also registered a Cmax in [21] of 61.5 ng/mL. For the same compound, the bioavailability in data set [29] stood at 23.5%.

The values are drawn from ChEMBL document CHEMBL6153133, “Discovery of Diphenyl Ether Derivatives as Novel BKCa Channel Activators: Structure-Activity Relationship, Cryo-EM Complex Structures, and In Vivo Animal Studies” (J Med Chem, 2025).
